Data reported in patent US20250382588A1, “CHIMERIC AAV AND USES THEREOF” (priority 2023, published 2025).
Entries after “also recorded” stand apart in the source; their conditions may differ.

Key:
[1] = Motor-related behaviors in naïve macaques after DCZ; type: in vivo; conditions: DCZ 0.3 mg/kg
Protocol: The locomotion tests for monkeys were conducted in a custom-made observation cage (100 cm×100 cm×100 cm). The top and front of the cage were made of toughened glass in order to gain a clear view for behavioral recording. Monkeys were habituated to the observation cage by placing them inside for 30 minutes on three separate days.

[2] = CSF concentration of DCZ by LC-MS; type: in vivo, macaques; conditions: 24 hours after drug infusion, 0.3 mg/kg i.m.
Description: One month of washout was allowed before administration of DCZ.

[3] = in vivo
[4] = test system: parkinsonian macaque model (MPP+); test: Parkinsonian symptoms in MPP+ macaques (PD score, locomotion, EMG tremor, motor skill, dyskinesia score)
Protocol: Parkinsonian conditions in macaque monkeys were established by unilaterally injecting 1-Methyl-4-phenylpyridinium (MPP+) into the SNc (FIG. 14). […] Drug injections were performed in five sites covering the whole SNc. A total volume of 10 ul MPP+ was injected into SNc at a speed of 50 nL/min. Monkeys were continuously monitored by veterinarians after lesion.
Two experienced observers blindly evaluated parkinsonian symptoms of the monkeys three days per week throughout the observation periods. Parkinsonian symptoms were quantified according to the well-established Kurlan scale (Part I. Parkinsonian features), a widely used scale to quantify PD symptoms in old world monkeys. A score of zero indicates a normal monkey, whereas a maximum score of 29 indicates an animal with severe PD symptoms. For separate behavioral categories, scoring of the upper limb and the lower limb were added together. Additionally, action or intention tremors and resting tremors were added together.
Two experienced observers blindly evaluated dyskinesia symptoms of the monkeys three days per week throughout the observation periods. Dyskinesia score criteria were: 0: Absent. 1: Mild, fleeting, present <30% of the observation period. 2: Moderate, not interfering with normal activity, present >30% of the observation period. 3: Marked, at times interfering with normal activity; present <70% of the observation period.4: Severe, continuous, replacing normal activity, present >70% of the observation.
For parkinsonian monkeys, DCZ (Deschloroclozapine, 0.3 mg/kg, MCE) was administered via intramuscular injection. After DCZ was successfully infused, monkeys were immediately transferred to the observation cage for video recording. […] For long-term DCZ treatment, parkinsonian monkeys were given DCZ at a dose of 0.3 mg/kg every other day via intramuscular injection. […] One month of washout was allowed before administration of DCZ for a 2 months treatment.
A grasp-to-eat/hand-to-mouth movement test was conducted as an indication of motor skills in monkeys. Monkeys were first trained to sit in a primate chair with the healthy hand restricted. Monkeys were then trained to grasp food (a piece of apple, ˜1 cm3) using the MPP+-affected hand from the experimenter. The task contained three blocks, with 20-minute intervals between different blocks. Each block included ten continuous trials. Trials were defined as successful when monkeys were able to bring food to their mouth within a minute.
During video recording, a top (x/y) and a side (x/z) camera were used to record the observation cage. The VigiePrimate system (Viewpoint) was used to analyze the subject's activity and extract movement data from the recorded videos. The tracking data were synchronously sampled at 25 Hz for both top view and side view, and then combined to generate one dataset representing the 3D space. The tracking data were normalized to 0-100 cm for all x-, y-, and z-axes, of which x represents right to left, y represents front to back, and z represents bottom to top.
Customized surface EMG electrodes were used for EMG recordings.

rM3Ds = target: T1, rM3Ds (Rattus norvegicus, UniProt P08483, A177S/A238G/A489L/DEL261-437/DEL441-478/E258S/I253V/I483M/INS256[…]/K178L/K182A/K255R/K484R/K486H/L173F/L482A/M480V/R171S/R176Q/R179M/S481M/T174R/T181R/T257A/Y148C); test: Electrophysiological recording in caudate/putamen of MPP+ lesioned macaques after CNO or DCZ; type: in vivo
T1 sequence (P08483 with tags, fused parts or gaps Y148C/R171S/L173F/T174R/R176Q/A177S/K178L/R179M/T181R/K182A/A238G/I253V/K255R/INS256[…]/T257A/E258S/DEL261-437/DEL441-478/M480V/S481M/L482A/I483M/K484R/K486H/A489L): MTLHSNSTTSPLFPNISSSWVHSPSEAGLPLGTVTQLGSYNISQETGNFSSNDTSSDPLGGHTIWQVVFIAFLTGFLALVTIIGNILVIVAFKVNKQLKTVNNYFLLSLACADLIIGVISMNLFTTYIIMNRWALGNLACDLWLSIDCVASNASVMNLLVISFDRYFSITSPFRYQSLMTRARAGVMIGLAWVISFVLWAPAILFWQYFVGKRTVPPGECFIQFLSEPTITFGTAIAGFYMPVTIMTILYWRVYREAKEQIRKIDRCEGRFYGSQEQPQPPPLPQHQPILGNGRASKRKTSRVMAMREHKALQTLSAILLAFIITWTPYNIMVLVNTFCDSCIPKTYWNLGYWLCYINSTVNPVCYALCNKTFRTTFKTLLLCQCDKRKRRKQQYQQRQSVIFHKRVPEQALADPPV
Protocol: Intriguingly, many of the symptoms were greatly reversed after systemic deschloroclozapine (DCZ) administration. DCZ is a potent brain-penetrable agonist for rM3Ds with reduced off-targeting binding compared to CNO, and was administered to activate the DREADD system in the macaque brain.
Electrophysiological recording was performed through a recording chamber while the monkey was anesthetized. Neural responses were recorded by a 16-channel linear probe (Plexon Inc, Uprobe) driven by a mechanical microdrive (Alpha Omega, FlexMT). Signals were passed through a head stage (Plexon Inc, HST/16V-G20 LN) and then split and filtered between 300 Hz and 5 kHz to identify spiking activity with an amplifier system (Plexon Inc, OmniPlex). Detected spikes were then sorted by commercially available software (Plexon Inc, Offline Sorter) for further analysis. To quantify the effect of CNO/DCZ injection, neural activity was recorded for 60 minutes following CNO/DCZ injection. The response time-course for each channel was obtained by counting the spikes within every 10-minute window and then normalizing to the maximal.
To determine the effect of CNO/DCZ injection on the direction of signal change, we performed Pearson correlation between neural responses and time using the ‘corr’ function in Matlab, which generates the correlation coefficient ‘r’ and significant level ‘p’. A neuron was considered to have “Increased” activity when r>0 and p<[…]; and considered to have “Decreased” activity when r<0 and p<0.05. Otherwise, neurons were considered to be “Unchanged” in their neural activities. The responses of all increased neurons were then averaged after being normalized by the maximal response (Crowe et al., 2014; Dai and Wang, 2018; Hirokawa et al., 2019) following CNO/DCZ injection, and then plotted as a function of time to generate the normalized population response.

[5] = test system: striatal D1 MSNs (striatonigral projection neurons); test: Retrograde labeling of striatonigral projection neurons after AAV injection into the SNr; type: in vivo, mice; conditions: for Mean: Table 2, AAVs with capsid and promoter, labeled cells per striatal hemisphere after nigral delivery; for retrograde labeling/infectivity of striatal projection neurons (D1 MSNs), in words: injection into the SNr; for labeled striatonigral projection neurons (FIG. 2C): mean±SEM, n=3 mice, viruses injected into the SNr; for times more EYFP positive/labeled MSNs compared to rAAV2-retro: nigral delivery, hSyn-EYFP
Protocol: To improve efficiency, multiple rounds of mutations of AAV capsids were performed on a series of different serotypes. Mutations were introduced at three sites in the AAV8 capsid protein to make AAV8R, including N385D, insertion of […] (SEQ ID NO: 31) at position 588, and TS711-712IN. Two additional mutations of V183E and N411S were incorporated into the AAV8R12 capsid protein (FIG. 1A). The labeling pattern of the AAV8R12 capsid and G88 promoter combination was determined.
First, the polypeptide fragment RGNLADODYTKTARQAATAD (SEQ ID NO.: 31) was inserted at the N587-R588 position; two other point mutations of the AAV2 Cap protein were made to develop rAAV2-retro. Similar mutations were then placed at equivalent positions for four other AAV serotypes (FIGS. 1A-IC and 25, TABLE 1), AAV1/5/6/8 (FIG. 1A). […] When administered into the SNr, 4.86±0.22 times EYFP positive MSNs in mice infected by AAV8R-hSyn-EYFP were observed as compared to those infected by rAAV2-retro-hSyn-EYFP (FIG. 2A-2C).
Baseline infectivity of rAAV2-retro was approximately 0.2±0.03×10^4 cells per striatal hemisphere (using a hSyn promoter) (TABLE 2). […] Compared to the current standard retrograde AAV, rAAV2-retro, AAV8R12 labeled 7.72±0.78-times more MSNs after nigral delivery (FIG. 2B-2C, TABLE 1). […] The AAV8R12 was generated using the AAV8R plasmid as a template.
Mice were anesthetized with sodium pentobarbital (Nembutal; 80 mg/kg, i.p.), and then placed into a stereotaxic device (KOPF). Eye cream was applied on both corneas to avoid dehydration. The skull above the targeted areas was thinned with a dental drill and carefully removed. Injections were conducted with a 10 μL syringe connected to a 33-Gauge needle (Neuros; Hamilton), using a microsyringe pump (Legato 130, KD Scientific). A total volume of 200 nL virus was injected into the SNr at a speed of 20 nL/min. The coordinates for the SNr were 3.4 mm posterior, 1.3 mm lateral, 4.8 mm ventral to the bregma.
HEK293T cells (ATCC) were co-transfected by calcium phosphate with an AAV vector plasmid, an AAV Rep-Cap plasmid (rAAV2-retro, AAV1R, AAV5R, AAV6R, AAV8R, and AAV8R1-14), and the pAdDeltaF6 helper plasmid (Addgene, 112867) harboring the adenoviral genes required for the AAV life cycle. HEK293T cells grown in 15 cm cell culture dishes were co-transfected with the mixture of three plasmids (1:1:1) at 80% confluency. 48-72 hours post-transfection, cells were collected and resuspended in a buffer containing 150 mM NaCl and 100 mM Tris-HCl (pH 8.0). Cells were lysed by repeated freeze-thaw cycles in liquid nitrogen and a 37° C. water bath. AAV particles were purified and concentrated using Millipore Amicon 100K columns (Merck Millipore, UFC910008). Encapsidated viral DNA was quantitated by qPCR (Thermo Fisher) with primers recognizing the viral WPRE and/or ITR sequences following denaturation of the AAV particles using Proteinase K. Titers were calculated as genome copies per milliliter.
Images were acquired using a confocal microscope (Carl Zeiss, LSM880) and an Axiolmager.Z1 microscope with apotome (Carl Zeiss). Brain structures were identified microscopically and in digital photos using a mouse brain atlas. To analyze the number of EYFP+ cells in the striatum, slices from rostral to caudal striatum were used. Every sixth section was analyzed, and numbers of EYFP+ cells were multiplied by six to acquire the approximate total number and mean number of cells per animal. Images were processed using ImageJ (NIH, USA), and final quantifications were independently performed manually by two blinded experimenters.

[6] = test system: MSNs in nucleus accumbens; test: Retrograde labeling of accumbal MSNs after delivery into ventral pallidum or lateral hypothalamus; type: in vivo, mice
[7] = caudate/putamen, CNO 36 cells, DCZ 31 cells

Molecule: CN1CCN(C2=Nc3ccccc3Nc3ccccc32)CC1 [DCZ, deschloroclozapine]
- motor-related behaviors in naïve monkeys [1]: did not alter motor-related behaviors; also recorded: doesn't alter motor-related behaviors
- DCZ level in cerebrospinal fluid [2]: no detectable levels
- blood levels of common liver- and kidney-related factors [3]: remained stable
- motor skills (hand to mouth movement) ([4]; DCZ treatment): significant recovery of motor skills; also recorded: partially restored
- spontaneous movement/motor deficits in an observation cage ([4]; DCZ treatment): increase in spontaneous movement; also recorded: successfully rescue motor deficits
- tremor (EMG) ([4]; DCZ treatment): great reduced or even eliminated; also recorded: removed
- duration of effect ([4]; FIG. 18C): over 24 hr
- alleviation of parkinsonian symptoms over long-term treatment ([4]; continuous DCZ): consistent during an 8-month continuous treatment
- speed of reversal of symptoms ([4]; initial phase of drug administration): faster reversal of symptoms than levodopa; also recorded: faster than L-Dopa
- dyskinesia-like behaviors (dyskinesia score) ([4]; long-term treatment): dyskinesia-free; also recorded: did not elicit dyskinesia-like behaviors; also recorded: dyskinesia free
- alleviating symptoms after drug administration ([4]; single dose after steady-state efficacy): at least 24 hours
- neuronal activity in MPP+ lesioned macaques, in words (rM3Ds; anesthetized animals): induced an increase in neuronal activity
- cells activated (FIG. 15G) (rM3Ds; [7]): 41.9%
- cells inactivated (FIG. 15G) (rM3Ds; [7]): 9.7%
- cells unchanged (FIG. 15G) (rM3Ds; [7]): 48.4%

B1: AAV8R12: AAV8R capsid mutant V183E + N411S, SEQ ID NO: 13 (protein)
chain: MAADGYLPDWLEDNLSEGIREWWALKPGAPKPKANQQKQDDGRGLVLPGYKYLGPFNGLDKGEPVNAADAAALEHDKAYDQQLQAGDNPYLRYNHADAEFQERLQEDTSFGGNLGRAVFQAKKRVLEPLGLVEEGAKTAPGKKRPVEPSPQRSPDSSTGIGKKGQQPARKRLNFGQTGDSESEPDPQPLGEPPAAPSGVGPNTMAAGGGAPMADNNEGADGVGSSSGNWHCDSTWLGDRVITTSTRTWALPTYNNHLYKQISNGTSGGATNDNTYFGYSTPWGYFDFNRFHCHFSPRDWQRLINNNWGFRPKRLSFKLFNIQVKEVTQNEGTKTIANNLTSTIQVFTDSEYQLPYVLGSAHQGCLPPFPADVFMIPQYGYLTLNDGSQAVGRSSFYCLEYFPSQMLRTGNSFQFTYTFEDVPFHSSYAHSQSLDRLMNPLIDQYLYYLSRTQTTGGTANTQTLGFSQGGPNTMANQAKNWLPGPCYRQQRVSTTTGQNNNSNFAWTAGTKYHLNGRNSLANPGIAMATHKDDEERFFPSNGILIFGKQNAARDNADYSDVMLTSEEEIKTTNPVATEEYGIVADNLQRGNLADQDYTKTARQAATADVNSQGALPGMVWQNRDVYLQGPIWAKIPHTDGNFHPSPLMGGFGLKHPPPQILIKNTPVPADPPTTFNQSKLNSFITQYSTGQVSVEIEWELQKENSKRWNPEIQYTSNYYKSINVDFAVNTEGVYSEPRPIGTRYLTRN
- Labeling Efficiency in Striatonigral Pathway ([5]; AAV8R capsid mutants, numbers of labeled neurons per animal): +++ (10 k-25 k)
- Mean [5]: 16026
- retrograde labeling/infectivity of striatal projection neurons (D1 MSNs), in words [5]: mostly improved efficiency
- labeled striatonigral projection neurons (FIG. 2C) [5]: 16026±1654
- times more EYFP positive/labeled MSNs compared to rAAV2-retro [5]: 7.72±0.78 times
- labeling of MSNs in nucleus accumbens [6]: robust labeling

B2: AAV8R: AAV8 capsid with N385D, insertion of SEQ ID NO: 31 at position 588 and TS to IN mutation; SEQ ID NO: 1 (protein)
chain: MAADGYLPDWLEDNLSEGIREWWALKPGAPKPKANQQKQDDGRGLVLPGYKYLGPFNGLDKGEPVNAADAAALEHDKAYDQQLQAGDNPYLRYNHADAEFQERLQEDTSFGGNLGRAVFQAKKRVLEPLGLVEEGAKTAPGKKRPVEPSPQRSPDSSTGIGKKGQQPARKRLNFGQTGDSESVPDPQPLGEPPAAPSGVGPNTMAAGGGAPMADNNEGADGVGSSSGNWHCDSTWLGDRVITTSTRTWALPTYNNHLYKQISNGTSGGATNDNTYFGYSTPWGYFDFNRFHCHFSPRDWQRLINNNWGFRPKRLSFKLFNIQVKEVTQNEGTKTIANNLTSTIQVFTDSEYQLPYVLGSAHQGCLPPFPADVFMIPQYGYLTLNDGSQAVGRSSFYCLEYFPSQMLRTGNNFQFTYTFEDVPFHSSYAHSQSLDRLMNPLIDQYLYYLSRTQTTGGTANTQTLGFSQGGPNTMANQAKNWLPGPCYRQQRVSTTTGQNNNSNFAWTAGTKYHLNGRNSLANPGIAMATHKDDEERFFPSNGILIFGKQNAARDNADYSDVMLTSEEEIKTTNPVATEEYGIVADNLQRGNLADQDYTKTARQAATADVNSQGALPGMVWQNRDVYLQGPIWAKIPHTDGNFHPSPLMGGFGLKHPPPQILIKNTPVPADPPTTFNQSKLNSFITQYSTGQVSVEIEWELQKENSKRWNPEIQYTSNYYKSINVDFAVNTEGVYSEPRPIGTRYLTRNL
- Mean [5]: 10092
- retrograde labeling/infectivity of striatal projection neurons (D1 MSNs), in words [5]: acquired improved retrograde infectivity
- labeled striatonigral projection neurons (FIG. 2C) [5]: 10092±463.9
- times more EYFP positive/labeled MSNs compared to rAAV2-retro [5]: 4.86±0.22 times
- labeling of MSNs in nucleus accumbens [6]: robust labeling
